Values belong to the compound of their own block, whether it stands above or below them.
Experiments:
CDK7 = CDK7 (Homo sapiens (Human), UniProt P50613); assay: In vitro inhibitory activity against CDK7 (Table 1); format: biochemical
Protocol: In vitro kinase assays with immunoprecipitated proteins (or recombinant CAK complexes) were performed as follows. Kinase reactions were performed in 25 μL of final volume of reaction buffer (50 mM Hepes, pH 7.5, 150 mM NaCl, 10 mM MgCl2, 5% glycerol, 25 μM ATP, and 10 μCi of [γ-32P]ATP). Each reaction contained 1 μg of RNAP II. Incubation was at 30° C. for 30-45 min. Reactions were terminated by addition of 5 μL of 5×SDS-PAGE sample buffer and incubated at 95° C. for 5 min. Reactions were analyzed by SDS-PAGE, and the dried gel was exposed to film or PhosphorImager plate.

Jurkat = Jurkat (proliferation, CellTiter-Glo); format: cell-based; conditions: Homo sapiens, Jurkat; read-out: Calculated IC50, Jurkat
MLK3 = MLK3 (Homo sapiens (Human), UniProt Q16584); assay: Life Technologies LanthaScreen Eu kinase assay, MLK3; format: binding; conditions: superscript b (footnote not given; tested at 100 nM and 1 μM)
MLK3, sequence (Q16584 whole entry): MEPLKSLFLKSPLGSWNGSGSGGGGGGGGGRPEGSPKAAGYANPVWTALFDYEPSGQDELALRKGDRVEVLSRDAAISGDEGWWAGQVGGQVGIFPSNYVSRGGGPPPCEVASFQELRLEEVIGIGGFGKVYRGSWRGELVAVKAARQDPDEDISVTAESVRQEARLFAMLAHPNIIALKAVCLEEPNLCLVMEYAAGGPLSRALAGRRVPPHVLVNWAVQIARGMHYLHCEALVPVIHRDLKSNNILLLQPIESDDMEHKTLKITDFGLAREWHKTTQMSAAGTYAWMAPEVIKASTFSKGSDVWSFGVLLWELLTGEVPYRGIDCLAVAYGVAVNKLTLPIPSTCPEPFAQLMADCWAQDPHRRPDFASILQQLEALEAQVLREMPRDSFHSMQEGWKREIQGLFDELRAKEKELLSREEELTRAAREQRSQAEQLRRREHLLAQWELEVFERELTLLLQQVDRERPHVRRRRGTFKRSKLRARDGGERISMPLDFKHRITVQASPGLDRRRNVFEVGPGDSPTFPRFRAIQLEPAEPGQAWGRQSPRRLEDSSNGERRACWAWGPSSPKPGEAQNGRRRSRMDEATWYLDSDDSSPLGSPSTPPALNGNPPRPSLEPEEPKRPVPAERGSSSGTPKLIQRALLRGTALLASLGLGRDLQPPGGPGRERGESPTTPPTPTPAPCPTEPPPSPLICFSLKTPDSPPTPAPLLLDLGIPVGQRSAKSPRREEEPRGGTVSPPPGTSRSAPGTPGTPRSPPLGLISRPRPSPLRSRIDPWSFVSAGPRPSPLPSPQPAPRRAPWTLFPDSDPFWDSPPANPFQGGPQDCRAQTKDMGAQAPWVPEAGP

IRAK1 = IRAK1 (Homo sapiens (Human), UniProt P51617); assay: Life Technologies Adapta kinase assay, IRAK1; format: biochemical; conditions: superscript b (footnote not given; tested at 100 nM and 1 μM)
IRAK1, sequence (P51617 whole entry): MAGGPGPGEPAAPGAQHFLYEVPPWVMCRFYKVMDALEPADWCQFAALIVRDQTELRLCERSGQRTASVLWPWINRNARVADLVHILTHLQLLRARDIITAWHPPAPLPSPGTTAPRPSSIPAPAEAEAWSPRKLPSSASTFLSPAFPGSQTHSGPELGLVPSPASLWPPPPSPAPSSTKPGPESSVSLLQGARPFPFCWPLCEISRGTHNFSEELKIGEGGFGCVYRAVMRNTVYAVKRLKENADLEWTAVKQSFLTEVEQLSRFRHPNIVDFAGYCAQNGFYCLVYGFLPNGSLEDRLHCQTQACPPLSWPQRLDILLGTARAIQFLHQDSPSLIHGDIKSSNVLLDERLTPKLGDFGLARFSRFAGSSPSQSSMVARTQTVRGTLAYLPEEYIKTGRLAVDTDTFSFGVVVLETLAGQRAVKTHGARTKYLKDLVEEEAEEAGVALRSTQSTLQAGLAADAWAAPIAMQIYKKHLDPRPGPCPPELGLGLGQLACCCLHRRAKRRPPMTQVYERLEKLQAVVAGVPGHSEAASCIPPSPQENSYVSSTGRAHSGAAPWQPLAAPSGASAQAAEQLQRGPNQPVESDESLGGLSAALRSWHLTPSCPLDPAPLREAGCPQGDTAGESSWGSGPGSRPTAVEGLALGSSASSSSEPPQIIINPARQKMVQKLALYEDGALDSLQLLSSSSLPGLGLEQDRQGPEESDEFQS

Hs822T = assay: Proliferation assay, CellTiter-Glo, 72 hour; format: cell-based; conditions: Ewing's sarcoma cell line, read-out: Inhibition of proliferation, Hs822T
MCF10A = assay: Proliferation assay, CellTiter-Glo, 72 hour; format: cell-based; conditions: Homo sapiens, MCF-10A, non-tumorigenic breast epithelial cell line, read-out: Inhibition of proliferation, MCF10A
T47D = assay: Proliferation assay, CellTiter-Glo, 72 hour; format: cell-based; conditions: Homo sapiens, T47D, breast cancer cell line, read-out: Inhibition of proliferation, T47D
SKBR3 = assay: Proliferation assay, CellTiter-Glo, 72 hour; format: cell-based; conditions: Homo sapiens, SK-BR-3, breast cancer cell line, read-out: Inhibition of proliferation, SKBR3
MCF7 = assay: Proliferation assay, CellTiter-Glo, 72 hour; format: cell-based; conditions: Homo sapiens, MCF7, breast cancer cell line, read-out: Inhibition of proliferation, MCF7
SK-ES = assay: Proliferation assay, CellTiter-Glo, 72 hour; format: cell-based; conditions: Ewing's sarcoma cell line, read-out: Inhibition of proliferation, SK-ES
RS4-11 = assay: Proliferation assay, CellTiter-Glo, 72 hour; format: cell-based; conditions: Homo sapiens, RS4-11, blood cancer cell line, read-out: Inhibition of proliferation, RS4-11
A673 = assay: Proliferation assay, CellTiter-Glo, 72 hour; format: cell-based; conditions: Homo sapiens, A673, Ewing's sarcoma cell line, read-out: Inhibition of proliferation, A673
RD-ES = assay: Proliferation assay, CellTiter-Glo, 72 hour; format: cell-based; conditions: RD-ES, Ewing's sarcoma cell line, read-out: Inhibition of proliferation, RD-ES
MNNG-HOS Cl#5 = assay: Proliferation assay, CellTiter-Glo, 72 hour; format: cell-based; conditions: osteosarcoma cell line, read-out: Inhibition of proliferation, MNNG-HOS Cl#5
THP-1 = assay: Proliferation assay, CellTiter-Glo, 72 hour; format: cell-based; conditions: Homo sapiens, THP-1, blood cancer cell line, read-out: Inhibition of proliferation, THP-1
MDA-MB231 = assay: Proliferation assay, CellTiter-Glo, 72 hour; format: cell-based; conditions: Homo sapiens, MDA-MB-231, breast cancer cell line, read-out: Inhibition of proliferation, MDA-MB231
MV4-11 = assay: Proliferation assay, CellTiter-Glo, 72 hour; format: cell-based; conditions: Homo sapiens, MV4-11, blood cancer cell line, read-out: Inhibition of proliferation, MV4-11
SAOS = assay: Proliferation assay, CellTiter-Glo, 72 hour; format: cell-based; conditions: osteosarcoma cell line, read-out: Inhibition of proliferation, SAOS
hTERT-HME1 = assay: Proliferation assay, CellTiter-Glo, 72 hour; format: cell-based; conditions: hTERT-HME1, immortalized normal mammary epithelial cell line, read-out: Inhibition of proliferation, hTERT-HME1
Hs863T = assay: Proliferation assay, CellTiter-Glo, 72 hour; format: cell-based; conditions: Ewing's sarcoma cell line, read-out: Inhibition of proliferation, Hs863T
HL60 = assay: Proliferation assay, CellTiter-Glo, 72 hour; format: cell-based; conditions: Homo sapiens, HL-60, blood cancer cell line, read-out: Inhibition of proliferation, HL60
143B = assay: Proliferation assay, CellTiter-Glo, 72 hour; format: cell-based; conditions: Homo sapiens, 143B, osteosarcoma cell line, read-out: Inhibition of proliferation, 143B

CDK7, sequence (P50613 whole entry, looked up): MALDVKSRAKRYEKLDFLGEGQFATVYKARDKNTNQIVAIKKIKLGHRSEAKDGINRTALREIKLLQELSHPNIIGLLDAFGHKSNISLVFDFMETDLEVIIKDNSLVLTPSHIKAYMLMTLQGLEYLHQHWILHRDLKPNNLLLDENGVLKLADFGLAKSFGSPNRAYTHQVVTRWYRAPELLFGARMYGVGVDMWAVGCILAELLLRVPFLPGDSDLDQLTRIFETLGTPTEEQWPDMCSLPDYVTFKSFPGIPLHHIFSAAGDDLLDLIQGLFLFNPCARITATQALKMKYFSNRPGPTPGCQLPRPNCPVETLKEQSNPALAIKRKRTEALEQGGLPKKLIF
CDK7, sequence (P51946 whole entry partner, looked up): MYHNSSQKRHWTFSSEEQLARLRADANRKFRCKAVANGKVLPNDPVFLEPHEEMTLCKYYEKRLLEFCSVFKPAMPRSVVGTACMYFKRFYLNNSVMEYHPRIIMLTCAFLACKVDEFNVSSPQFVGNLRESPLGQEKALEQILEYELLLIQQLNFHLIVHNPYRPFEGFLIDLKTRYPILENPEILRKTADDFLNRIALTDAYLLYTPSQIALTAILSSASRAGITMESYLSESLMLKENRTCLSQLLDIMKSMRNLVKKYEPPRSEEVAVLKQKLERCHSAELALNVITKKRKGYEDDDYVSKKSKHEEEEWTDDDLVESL
CDK7, sequence (P51948 whole entry partner, looked up): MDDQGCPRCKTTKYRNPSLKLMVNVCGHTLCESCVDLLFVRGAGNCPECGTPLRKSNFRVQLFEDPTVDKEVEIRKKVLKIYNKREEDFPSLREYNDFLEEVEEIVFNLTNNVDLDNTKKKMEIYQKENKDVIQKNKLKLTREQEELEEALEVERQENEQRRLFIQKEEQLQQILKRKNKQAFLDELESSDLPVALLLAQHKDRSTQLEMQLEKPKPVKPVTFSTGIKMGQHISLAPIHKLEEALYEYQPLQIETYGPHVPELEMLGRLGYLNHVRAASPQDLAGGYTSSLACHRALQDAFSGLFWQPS

SMILES: Cc1cccc2[nH]cc(-c3ccnc(Nc4cccc(NC(=O)c5ccc(NC(=O)/C=C/CN(C)C)cc5)c4)n3)c12 [Formula I-40]
- IC50 (CDK7): 3470 nM

SMILES: CN(C)C/C=C/C(=O)Nc1ccc(C(=O)Nc2cccc(Nc3ncc(Cl)c(-c4cnc5[nH]ccc5c4)n3)c2)cc1 [Formula I-29]
- IC50 (CDK7): 288 nM

SMILES: Cc1ccc(NC(=O)c2ccc(NC(=O)/C=C/CN(C)C)cc2)cc1Nc1ncc(Cl)c(-c2c[nH]c3ccccc23)n1 [Formula I-22]
- IC50 (CDK7): 32.6 nM

SMILES: CN(C)C/C=C/C(=O)Nc1ccc(C(=O)Nc2cccc(Nc3ncc(C(F)(F)F)c(-c4c[nH]c5ccccc45)n3)c2)cc1 [Formula I-42]
- IC50 (CDK7): 35.7 nM

SMILES: CN(C)C/C=C/C(=O)Nc1ccc(C(=O)Nc2cccc(Nc3ncc(Cl)c(-c4cn(C)c5ccccc45)n3)c2)cc1 [Formula I-28]
- IC50 (CDK7): 238 nM

SMILES: CCc1cnc(Nc2cccc(NC(=O)c3ccc(NC(=O)/C=C/CN(C)C)cc3)c2)nc1-c1c[nH]c2ccccc12 [Formula I-21]
- IC50 (CDK7): 22.7 nM

SMILES: CN(C)C/C=C/C(=O)Nc1ccc(C(=O)N(C)c2cccc(Nc3ncc(Cl)c(-c4c[nH]c5ccccc45)n3)c2)cc1 [Formula I-57, (E)-N-(3-(5-chloro-4-(1H-indol-3-yl)pyrimidin-2-ylamino)phenyl)-4-(4-(dimethylamino)but-2-enamido)-N-methylbenzamide]
- IC50 (Jurkat): ≥ 1000 nM
- Percent inhibition, MLK3^b (MLK3): C (less than 50% inhibition)
- Percent inhibition, IRAK1^b (IRAK1): C (less than 50% inhibition)

SMILES: CCSC(=O)CCNc1ccc(C(=O)Nc2cccc(Nc3ncc(Cl)c(-c4c[nH]c5ccccc45)n3)c2)cc1 [Formula I-37]
- IC50 (CDK7): 557 nM

SMILES: CN(C)C/C=C/C(=O)Nc1ccc(C(=O)Nc2cccc(Nc3nc(-c4c[nH]c5ccccc45)c4ccccc4n3)c2)cc1 [Formula I-33]
- IC50 (CDK7): 1420 nM

SMILES: CN(C)C/C=C/C(=O)Nc1cccc(C(=O)Nc2cccc(Nc3ncc(Cl)c(-c4c[nH]c5ccccc45)n3)c2)c1 [Formula I-18]
- IC50 (CDK7): 13.9 nM

SMILES: Cc1cnc(Nc2cccc(NC(=O)c3ccc(NC(=O)/C=C/CN(C)C)cc3)c2)nc1-c1c[nH]c2ccccc12 [Formula I-19]
- IC50 (CDK7): 15.7 nM

SMILES: CN(C)C/C=C/C(=O)Nc1ccc(C(=O)Nc2cccc(Nc3ncc(C4CC4)c(-c4c[nH]c5ccccc45)n3)c2)cc1 [Formula I-26]
- IC50 (CDK7): 184 nM

SMILES: CN(C)C/C=C/C(=O)Nc1ccc(C(=O)Nc2cccc(Nc3ncc(Cl)c(-c4cc5ccccc5[nH]4)n3)c2)cc1 [Formula I-34]
- IC50 (CDK7): 4750 nM

SMILES: CN(C)C/C=C/C(=O)Nc1ccc(C(=O)Nc2cccc(Nc3ncc(Cl)c(-n4cnc5ccccc54)n3)c2)cc1 [Formula I-27]
- IC50 (CDK7): 201 nM

SMILES: Cc1cnc(Nc2cccc(NC(=O)c3ccc(NC(=O)/C=C/CN(C)C)cc3)c2)nc1-c1c[nH]c2cccc(C)c12 [Formula I-41]
- IC50 (CDK7): 809 nM

SMILES: CC(C)[C@]12O[C@H]1[C@@H]1O[C@]13[C@]1(O[C@H]1C[C@H]1C4=C(CC[C@@]13C)C(=O)OC4)[C@@H]2O [Triptolide, triptolide, reference compound]
- IC50 (Hs822T): 500 to 5000 nM
- IC50 (MCF10A): < 500 nM
- IC50 (T47D): > 5 µM
- IC50 (SKBR3): < 500 nM
- IC50 (MCF7): < 500 nM
- IC50 (SK-ES): < 500 nM
- IC50 (RS4-11): < 500 nM
- IC50 (A673): < 500 nM
- IC50 (RD-ES): < 500 nM
- IC50 (MNNG-HOS Cl#5): < 500 nM
- IC50 (THP-1): < 500 nM
- IC50 (MDA-MB231): < 500 nM
- IC50 (MV4-11): < 500 nM
- IC50 (SAOS): < 500 nM
- IC50 (hTERT-HME1): < 500 nM
- IC50 (Hs863T): > 5 µM
- IC50 (HL60): < 500 nM
- IC50 (143B): < 500 nM

SMILES: CN(C)C/C=C/C(=O)Nc1ccc(C(=O)Nc2cccc(Nc3ncc(Cl)c(-c4ccc5cc[nH]c5c4)n3)c2)cc1 [Formula I-32]
- IC50 (CDK7): 1180 nM

SMILES: Cc1ccc(Nc2ncc(C#N)c(-c3c[nH]c4ccccc34)n2)cc1NC(=O)c1ccc(NC(=O)/C=C/CN(C)C)cc1 [Formula I-56, (E)-N-(5-(5-cyano-4-(1H-indol-3-yl)pyrimidin-2-ylamino)-2-methylphenyl)-4-(4-(dimethylamino)but-2-enamido)benzamide]
- IC50 (Jurkat): < 100 nM
- Percent inhibition, MLK3^b (MLK3): C (less than 50% inhibition)
- Percent inhibition, IRAK1^b (IRAK1): C (less than 50% inhibition)

SMILES: Cc1nc(C)c(-c2nc(Nc3cccc(NC(=O)c4ccc(NC(=O)/C=C/CN(C)C)cc4)c3)ncc2Cl)s1 [Formula I-50]
- IC50 (CDK7): 92.3 nM

Continued, values first:

- IC50 (CDK7): 87.8 nM
SMILES: CN(C)C/C=C/C(=O)Nc1ccc(C(=O)Nc2ccc(Cl)c(Nc3ncc(Cl)c(-c4c[nH]c5ccccc45)n3)c2)cc1 [Formula I-25]

- IC50 (CDK7): 3010 nM
SMILES: CN(C)C/C=C/C(=O)Nc1ccc(C(=O)Nc2cccc(Nc3ncc(Cl)c(-c4c(-c5ccccc5)nn5ccccc45)n3)c2)cc1 [Formula I-38]

- IC50 (CDK7): 36.2 nM
SMILES: CN(C)C/C=C/C(=O)NCc1ccc(C(=O)Nc2cccc(Nc3ncc(Cl)c(-c4c[nH]c5ccccc45)n3)c2)cc1 [Formula I-43]

- IC50 (CDK7): 40 nM
SMILES: C=CC(=O)Nc1ccc(C(=O)Nc2cccc(Nc3ncc(Cl)c(-c4c[nH]c5ccccc45)n3)c2)cc1 [Formula I-24]

- IC50 (CDK7): 1350 nM
SMILES: Cc1nc(Nc2cccc(NC(=O)c3ccc(NC(=O)/C=C/CN(C)C)cc3)c2)nc(-c2c[nH]c3ccccc23)c1C [Formula I-39]

- IC50 (Jurkat): 100 to 1000 nM
SMILES: CN(C)C/C=C/C(=O)Nc1ccc(S(=O)(=O)Nc2cccc(Nc3ncc(Cl)c(-c4c[nH]c5ccccc45)n3)c2)cc1 [Formula I-52, (E)-N-(4-(N-(3-(5-chloro-4-(1H-indol-3-yl)pyrimidin-2-ylamino)phenyl)sulfamoyl)phenyl)-4-(dimethylamino)but-2-enamide]

- IC50 (CDK7): 391 nM
SMILES: CN(C)C/C=C/C(=O)Nc1ccc(C(=O)Nc2cccc(Nc3nccc(-c4c[nH]c5ccccc45)n3)c2)cc1 [Formula I-44]

- IC50 (Jurkat): 100 to 1000 nM
SMILES: CN(C)C/C=C/C(=O)Nc1ccc(S(=O)(=O)Nc2cccc(Nc3ncc(C#N)c(-c4c[nH]c5ccccc45)n3)c2)cc1 [Formula I-55, (E)-N-(4-(N-(3-(5-cyano-4-(1H-indol-3-yl)pyrimidin-2-ylamino)phenyl)sulfamoyl)phenyl)-4-(dimethylamino)but-2-enamide]

- IC50 (CDK7): 347 nM
SMILES: CN(C)C/C=C/C(=O)Nc1ccc(C(=O)Nc2cccc(Nc3ncc(Cl)c(-c4cccc5[nH]ccc45)n3)c2)cc1 [Formula I-30]

- IC50 (CDK7): 416 nM
SMILES: CN(C)C/C=C/C(=O)Nc1ccc(C(=O)Nc2cccc(Nc3ncc(Cl)c(-c4cccc5[nH]ccc45)n3)c2)cc1 [Formula I-31]

— patent US10787436B2, “Inhibitors of cyclin-dependent kinase 7 (CDK7)” (Dana-Farber Cancer Institute, Inc., priority 2012, dated 2020)
